Test [1] has as its target N-type calcium channel (Homo sapiens, UniProt Q00975). Briefly: N-Channel FLIPR (Fluorescent Laser Imaging Plate Reader) assay. Format: cell-based. Conditions: inhibition of 80 mM K+ evoked calcium flux, differentiated IMR32 cells. Background: Calcium flux is commonly read through the fluorescence of an indicator in the cells.
Test [2] relates to formalin-induced nocifensive behaviours. Briefly: Formalin test. Format: in vivo, rats. As to the method: II. Formalin Test. The Formalin test assesses the inhibitory effects of orally administered N-type calcium channel antagonists on formalin-induced nocifensive behaviours in rats. The formalin test is a well established pain test (Dubuisson and Dennis, 1977; Wheeler-Aceto et al., 1990; Coderre et al., 1993). This test consists of two distinct phases of formalin-induced behavior. The first phase response, occurring between 0 to 5 minutes, is caused by acute nociception to the noxious chemical (formalin) injected into the paw. This is followed by a quiescent period of between 5 to 15 min post injection. A second phase response, occurring after 15 minutes and lasting up to 60 minutes, is caused by sensitization of the central neurons in the dorsal horn. Central sensitization augments the noxious afferent input and a stronger pain barrage is transmitted into the brain. Inhibition of the second phase response is indicative of a central mechanism of drug action. The procedure for the formalin test is as follows: male rats are placed in a Plexiglas chamber and observed for 30-45 min. to observe their baseline activity. Multiple groups of animals are pretreated with either vehicle or different doses of a test compound. Animals are dosed with the drug of interest either 40 min., if by the intraperitoneal route, or 90 min., if by the oral route, prior to injection of formalin into a hind paw (under the dorsal skin; 0.05 mL of sterile 5% formalin). The number of paw flinches and licks during first phase (0-5 min.) and second phase (20-35 min.) are scored and recorded. […] and lick responses are calculated as percentage of inhibition compared with the mean score of a saline control group. Drug potencies are expressed as the dose which causes 50% of the maximum inhibitory effect (“ID50”). Student t-tests are used for statistical analysis to determine the significance of drug effects. Compounds are considered active based on their ability to inhibit the flinch response.

Test [3] deals with chemo-nociception. The note with it: phenylbenzoquinone-induced writhing and formalin test; cited from earlier work. For orientation: In writhing tests, fewer writhes than in controls are read as antinociception.

N-type calcium channel, sequence (Q00975 whole entry): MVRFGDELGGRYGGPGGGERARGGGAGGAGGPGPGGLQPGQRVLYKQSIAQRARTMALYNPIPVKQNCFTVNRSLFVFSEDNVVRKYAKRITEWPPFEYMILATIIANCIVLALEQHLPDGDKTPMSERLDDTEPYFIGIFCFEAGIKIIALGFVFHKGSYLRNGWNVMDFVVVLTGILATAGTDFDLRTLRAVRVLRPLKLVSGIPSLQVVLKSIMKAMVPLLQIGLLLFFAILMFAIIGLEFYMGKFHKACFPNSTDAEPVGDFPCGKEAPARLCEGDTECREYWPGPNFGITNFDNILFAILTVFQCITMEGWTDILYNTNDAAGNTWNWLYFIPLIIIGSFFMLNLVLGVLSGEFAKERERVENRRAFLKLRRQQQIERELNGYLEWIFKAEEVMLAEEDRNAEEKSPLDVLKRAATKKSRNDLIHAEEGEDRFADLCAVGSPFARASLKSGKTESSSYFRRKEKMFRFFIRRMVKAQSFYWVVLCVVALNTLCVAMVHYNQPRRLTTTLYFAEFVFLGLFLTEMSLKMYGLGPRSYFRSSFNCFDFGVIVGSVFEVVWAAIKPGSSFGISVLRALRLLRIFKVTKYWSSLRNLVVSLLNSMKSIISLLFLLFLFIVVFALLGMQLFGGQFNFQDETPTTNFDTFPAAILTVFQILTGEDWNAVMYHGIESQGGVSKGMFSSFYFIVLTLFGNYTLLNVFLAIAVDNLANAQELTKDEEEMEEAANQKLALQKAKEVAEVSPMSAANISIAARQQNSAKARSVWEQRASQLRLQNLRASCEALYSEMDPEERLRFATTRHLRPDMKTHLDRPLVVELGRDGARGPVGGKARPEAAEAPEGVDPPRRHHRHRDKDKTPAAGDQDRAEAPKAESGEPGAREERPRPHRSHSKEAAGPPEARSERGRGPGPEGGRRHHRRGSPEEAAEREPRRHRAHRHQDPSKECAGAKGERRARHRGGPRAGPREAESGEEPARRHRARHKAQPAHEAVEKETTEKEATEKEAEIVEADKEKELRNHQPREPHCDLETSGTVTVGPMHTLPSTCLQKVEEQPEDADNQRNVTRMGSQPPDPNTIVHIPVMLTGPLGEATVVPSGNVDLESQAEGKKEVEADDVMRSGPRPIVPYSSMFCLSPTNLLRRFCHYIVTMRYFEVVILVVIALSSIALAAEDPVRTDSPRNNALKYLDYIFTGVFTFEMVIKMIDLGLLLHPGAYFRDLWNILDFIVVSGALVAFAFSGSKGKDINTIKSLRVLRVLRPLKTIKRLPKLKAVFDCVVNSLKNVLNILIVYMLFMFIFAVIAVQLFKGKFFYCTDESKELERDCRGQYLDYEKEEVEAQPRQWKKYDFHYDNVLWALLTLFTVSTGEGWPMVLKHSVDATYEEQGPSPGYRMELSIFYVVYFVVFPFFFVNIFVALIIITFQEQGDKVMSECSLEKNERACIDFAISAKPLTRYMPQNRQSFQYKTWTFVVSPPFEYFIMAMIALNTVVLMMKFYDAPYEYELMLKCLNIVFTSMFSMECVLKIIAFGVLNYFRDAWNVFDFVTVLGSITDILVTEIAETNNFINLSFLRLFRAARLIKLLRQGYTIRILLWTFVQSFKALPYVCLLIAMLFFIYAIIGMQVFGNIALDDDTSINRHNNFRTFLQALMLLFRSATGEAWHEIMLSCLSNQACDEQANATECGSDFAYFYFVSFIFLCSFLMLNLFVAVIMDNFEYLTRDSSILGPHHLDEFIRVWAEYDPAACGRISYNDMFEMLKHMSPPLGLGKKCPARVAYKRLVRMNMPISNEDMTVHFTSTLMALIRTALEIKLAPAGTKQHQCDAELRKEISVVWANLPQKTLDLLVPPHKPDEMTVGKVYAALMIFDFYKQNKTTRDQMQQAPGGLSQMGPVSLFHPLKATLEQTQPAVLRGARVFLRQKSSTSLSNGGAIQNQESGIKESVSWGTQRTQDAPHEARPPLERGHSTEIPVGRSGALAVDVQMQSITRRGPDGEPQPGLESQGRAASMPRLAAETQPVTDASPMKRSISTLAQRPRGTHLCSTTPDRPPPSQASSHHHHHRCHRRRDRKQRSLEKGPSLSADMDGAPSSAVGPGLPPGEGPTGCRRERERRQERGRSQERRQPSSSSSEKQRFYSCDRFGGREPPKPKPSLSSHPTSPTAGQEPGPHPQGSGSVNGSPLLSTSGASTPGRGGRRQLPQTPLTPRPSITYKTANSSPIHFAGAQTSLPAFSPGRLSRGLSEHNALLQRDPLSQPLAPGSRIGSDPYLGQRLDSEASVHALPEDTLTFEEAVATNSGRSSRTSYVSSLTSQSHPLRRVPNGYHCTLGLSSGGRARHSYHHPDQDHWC
N-type calcium channel, sequence (P54289 25-1103 partner): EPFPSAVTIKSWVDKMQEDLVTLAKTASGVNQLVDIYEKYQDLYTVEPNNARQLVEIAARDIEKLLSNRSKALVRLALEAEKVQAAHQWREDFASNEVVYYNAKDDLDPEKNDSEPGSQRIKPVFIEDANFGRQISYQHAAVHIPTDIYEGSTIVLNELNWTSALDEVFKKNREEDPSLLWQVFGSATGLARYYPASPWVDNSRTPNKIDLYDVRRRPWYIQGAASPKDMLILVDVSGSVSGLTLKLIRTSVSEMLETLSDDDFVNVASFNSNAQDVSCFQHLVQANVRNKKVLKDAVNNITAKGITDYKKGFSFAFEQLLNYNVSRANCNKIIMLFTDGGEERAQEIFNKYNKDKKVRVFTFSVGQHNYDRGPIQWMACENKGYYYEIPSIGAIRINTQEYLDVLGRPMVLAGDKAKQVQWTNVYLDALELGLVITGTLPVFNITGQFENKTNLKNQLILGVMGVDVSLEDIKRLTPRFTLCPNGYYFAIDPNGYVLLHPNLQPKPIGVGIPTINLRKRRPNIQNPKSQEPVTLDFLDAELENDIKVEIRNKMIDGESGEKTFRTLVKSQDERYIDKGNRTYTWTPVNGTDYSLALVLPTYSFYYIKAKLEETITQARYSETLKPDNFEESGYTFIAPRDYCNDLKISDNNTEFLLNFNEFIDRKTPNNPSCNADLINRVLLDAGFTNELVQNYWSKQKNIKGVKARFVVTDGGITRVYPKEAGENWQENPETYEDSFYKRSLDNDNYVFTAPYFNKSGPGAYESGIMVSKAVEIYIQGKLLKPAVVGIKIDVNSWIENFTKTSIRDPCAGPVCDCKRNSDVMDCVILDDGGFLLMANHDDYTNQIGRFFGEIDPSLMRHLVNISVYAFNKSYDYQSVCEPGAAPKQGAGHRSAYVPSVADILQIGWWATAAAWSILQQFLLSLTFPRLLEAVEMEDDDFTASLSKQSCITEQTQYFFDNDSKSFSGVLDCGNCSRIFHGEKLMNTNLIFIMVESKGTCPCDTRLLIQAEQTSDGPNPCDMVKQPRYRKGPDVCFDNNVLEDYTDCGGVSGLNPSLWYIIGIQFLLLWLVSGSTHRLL
N-type calcium channel, sequence (P54284 whole entry partner): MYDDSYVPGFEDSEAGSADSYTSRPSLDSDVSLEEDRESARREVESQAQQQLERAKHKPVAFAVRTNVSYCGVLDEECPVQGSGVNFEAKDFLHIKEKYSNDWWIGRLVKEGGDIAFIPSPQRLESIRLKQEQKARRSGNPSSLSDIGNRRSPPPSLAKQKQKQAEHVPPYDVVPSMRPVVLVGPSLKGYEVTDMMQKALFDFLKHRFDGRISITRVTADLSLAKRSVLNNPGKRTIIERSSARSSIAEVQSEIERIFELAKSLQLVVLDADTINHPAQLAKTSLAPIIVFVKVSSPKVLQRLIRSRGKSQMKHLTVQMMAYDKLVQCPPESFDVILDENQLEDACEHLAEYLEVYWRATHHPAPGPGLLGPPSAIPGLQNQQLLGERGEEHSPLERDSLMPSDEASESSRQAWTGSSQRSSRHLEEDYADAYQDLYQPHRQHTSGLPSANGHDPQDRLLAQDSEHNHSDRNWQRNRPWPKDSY

As for `CC(C)(C)CNc1cc(Nc2ccc(F)c(Cl)c2)nc2ccccc12` [Example 2, N2(3-chloro-4-fluoro-phenyl)-N4(2,2-dimethyl-propyl)-quinoline-2,4-diamine], in test [1], the IC50 (in general, the concentration that inhibits the measured activity by half) worked out at 5870 nM. In test [2] ((76, 40, IP)), the “Formalin test % inhibition (dose, time, route)” value (“Formalin test % inhibition” for short) is reported as 39 (76, 40, IP) %.

Consider `COc1ccc(Nc2cc(NCC(C)(C)C)c3ccccc3n2)cc1OC` [Example 3, N2(3,4-dimethoxy-phenyl)-N4(2,2-dimethyl-propyl)-quinoline-2,4-diamine], for which the IC50 in test [1] is 1720 nM. The “Formalin test % inhibition” value in test [2] ((75, 40, IP)) is recorded as 22 (75, 40, IP) %.

As for `CC(C)(C)CNc1cc(Nc2ccccc2N2CCOCC2)nc2ccccc12` [Example 7, N4(2,2-dimethyl-propyl)-N2(2-morpholin-4-yl-phenyl)-quinoline-2,4-diamine], in test [1], the IC50 worked out at 670 nM. Besides, the “Formalin test % inhibition” value in test [2] ((59, 40, IP)) was 24 (59, 40, IP) %.

In the case of `COc1ccc(Nc2cc(NCC(C)(C)C)c3cccc(F)c3n2)cc1OC` [Example 8, N2(3,4-Dimethoxy-phenyl)-N4(2,2-dimethyl-propyl)-8-fluoro-quinoline-2,4-diamine], the IC50 in test [1] stood at 2820 nM.

For `CC(C)(C)CNc1cc(Nc2ccc3ncsc3c2)nc2c(F)cccc12` [Example 11, N2-Benzothiazol-6-yl-N4(2,2-dimethyl-propyl)-8-fluoro-quinoline-2,4-diamine], the IC50 in test [1] came out at 6870 nM.

With `COc1ccccc1CC(=N)N1C[C@@H]2C(=O)CCC(c3ccccc3)(c3ccccc3)[C@@H]2C1` [RP 67,580], in test [3], the analgesia result is on record as “produced analgesia with potency comparable to that of morphine”.

These data come from patent US7060834B2, “N-type calcium channel antagonists for the treatment of pain” (AstraZeneca AB, priority 2001, dated 2006).
